Measured values published in US10130630B2, “BTK inhibitors” (MERCK SHARP & DOHME CORP., priority 2014, dated 2018).
pIC50: −log10 of the molar value. Where two headings read alike, the source gives them in different places.

Assays:
[1] = biological target: T1, BTK enzyme (full-length BTK, hBTK) (Homo sapiens, UniProt Q06187); assay: Btk enzyme activity assay (LANCE TR-FRET); format: biochemical; settings: 50 pM hBTK, 25 μM ATP, 60 minute compound and enzyme incubation, read-out: BTK binding IC50
T1 construct: recombinant protein from baculovirus-transfected Sf9 cells: full-length BTK, 6HIS-tag cleaved; 6HIS (cleaved yes); made in house; host or cells: baculovirus-transfected Sf9 cells
Procedure: BTK enzymatic activity was determined with the LANCE (Lanthanide Chelate Excite) TR-FRET (Time-resolved fluorescence resonance energy transfer) assay. […] To each well of a black non-binding surface Corning 384-well microplate (Corning Catalog #3820), 5 nL of compound (2000 fold dilution in final assay volume of 10 μL) was dispensed, followed by the addition of 7.5 μL of 1× kinase buffer (50 mM Hepes 7.5, 10 mM MgCl2, 0.01% Brij-35, 1 mM EGTA, 0.05% BSA & 1 mM DTT) containing 5.09 pg/μL (66.67 pM) of BTK enzyme (recombinant protein from baculovirus-transfected Sf9 cells: full-length BTK, 6HIS-tag cleaved). Following a 60 minute compound and enzyme incubation, each reaction was initiated by the addition of 2.5 μL 1× kinase buffer containing 8 μM biotinylated “A5” peptide (Biotin-[…]-NH2) (SEQ.ID.NO.: 1), and 100 μM ATP. The final reaction in each well of 10 μL consists of 50 pM hBTK, 2 μM biotin-A5-peptide, and 25 μM ATP. Phosphorylation reactions were allowed to proceed for 120 minutes. Reactions were immediately quenched by the addition of 20 uL of 1× quench buffer (15 mM EDTA, 25 mM Hepes 7.3, and 0.1% Triton X-100) containing detection reagents (0.626 nM of LANCE-Eu-W1024-anti-phosphoTyrosine antibody, PerkinElmer and 86.8 nM of Streptavidin-conjugated Dylight 650, Dyomics/ThermoFisher Scientific). After 60 minutes incubation with detection reagents, reaction plates were read on a PerkinElmer EnVision plate reader using standard TR-FRET protocol. Briefly, excitation of donor molecules (Eu-chelate:anti-phospho-antibody) with a laser light source at 337 nm produces energy that can be transferred to Dylight-650 acceptor molecules if this donor:acceptor pair is within close proximity. Fluorescence intensity at both 665 nm (acceptor) and 615 nm (donor) are measured and a TR-FRET ratio calculated for each well (acceptor intensity/donor intensity). IC50 values were determined by 4 parameter robust fit of TR-FRET ratio values vs. (Log10) compound concentrations.
The following Table 2 provides specific IC50 values for all the examples. The IC50 values set forth below were determined according to Assay method described above.

[2] = test system: adenosine uptake into HeLa cells; assay: [3H]Adenosine uptake assay in HeLa cells; format: cell-based; settings: 60 minutes uptake, read-out: ADU inhibition IC50 (adenosine uptake inhibition potency)
Procedure: Compounds were also screened in an adenosine uptake functional cellular assay using the protocol described below.
Adenosine uptake activity was determined by monitoring the accumulation of tritiated adenosine into HeLa cells (ATCC catalog # CCL-2) using a PMT-based radiometric detection instrument. In this assay, the potency (IC50) of each compound was determined from a ten point (1:3 serial dilution; final compound concentration range in assay from 10 μM to 0.032 nM) titration curve using the following outlined procedure. To each well of a 96-well CytoStar-T scintillating microplate (Perkin Elmer Catalog # RPNQ0163), 25 000 HeLa cells in 100 μL of growth medium comprising: Minimum Essential Media (Life Technologies Catalog # 11095-080)+10% (v/v) foetal bovine serum (FBS; Sigma Aldrich Catalog # F2442) was added. These cells were incubated overnight at 37° C. in a humidified atmosphere with 5% (v/v) CO2. After this time the growth medium was removed and replaced with 40 μL assay medium comprising: Hanks balanced salts solution (HBSS; Thermo Fisher Catalog # SH30268.01)+5% (v/v) FBS. Compound stock solutions in DMSO were diluted in assay medium to 2.5× final compound concentration maintaining a constant DMSO concentration of 0.25% (v/v). 40 μL of compound in assay medium was dispensed into individual wells of the Cytostar-T plates and the plates were incubated for 30 minutes under ambient laboratory conditions. Following this incubation, 20 μL of 500 nM [^3H]adenosine (American Radiolabeled Chemicals Inc. Catalog # ART0287) in assay medium was added and incubated for a further 60 minutes under ambient laboratory conditions. The amount of radiolabel accumulation was then determined using a Perkin Elmer Topcount NXT microplate reader. In brief, HeLa cells adhere to the bottom of the Cytostar-T plate, uptake of [^3H]adenosine into these cells brings the radiolabel into sufficient proximity to excite the scintillant in the base of the plates. These events are captured by single PMT, time-resolved coincidence counting. IC50 values were determined by 4 parameter robust fit of counts per second values vs. (Log10) compound concentrations.

T1 sequence (Q06187 whole entry): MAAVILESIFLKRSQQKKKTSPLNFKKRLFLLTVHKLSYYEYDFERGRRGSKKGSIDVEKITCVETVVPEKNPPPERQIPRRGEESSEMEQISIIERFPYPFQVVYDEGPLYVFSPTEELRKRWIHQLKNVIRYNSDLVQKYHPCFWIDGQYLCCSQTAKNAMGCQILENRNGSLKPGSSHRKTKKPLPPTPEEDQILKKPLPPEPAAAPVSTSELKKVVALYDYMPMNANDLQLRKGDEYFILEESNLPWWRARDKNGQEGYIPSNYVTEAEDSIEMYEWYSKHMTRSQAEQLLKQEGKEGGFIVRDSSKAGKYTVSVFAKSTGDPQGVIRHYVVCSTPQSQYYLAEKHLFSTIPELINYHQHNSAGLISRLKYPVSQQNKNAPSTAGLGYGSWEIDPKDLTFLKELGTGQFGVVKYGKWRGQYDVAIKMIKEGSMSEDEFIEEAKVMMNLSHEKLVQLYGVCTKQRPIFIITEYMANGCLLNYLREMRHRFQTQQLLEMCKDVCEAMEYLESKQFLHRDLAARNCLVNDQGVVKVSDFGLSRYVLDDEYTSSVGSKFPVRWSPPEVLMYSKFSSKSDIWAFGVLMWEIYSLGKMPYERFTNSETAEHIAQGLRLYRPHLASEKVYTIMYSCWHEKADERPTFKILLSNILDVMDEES

Row | Structure (SMILES) | pIC50 [1] | pIC50 ([2]; Homo sapiens, HeLa) | pIC50 [2]
1 | CCOc1cc(C(=O)Nc2cc(C(F)(F)F)n(C)n2)ccc1-c1nc([C@@H]2CC[C@@H]3N(C2)C(=O)C2(CC2)C3(F)F)n2ccnc(N)c12 [Compound 32, 4-{8-amino-3-[(6′R,8a′S)-1′,1′-difluoro-3′-oxohexahydrospiro[cyclopropane-1,2′-indolizin]-6′-yl]imidazo[1,5-a]pyrazin-1-yl}-3-ethoxy-N-[1-methyl-5-(trifluoromethyl)-1H-pyrazol-3-yl]benzamide] | 8.21 | 5.53 | 
2 | CCOc1cc(C(=O)Nc2cc(C#N)ccn2)cc(F)c1-c1nc(C2CCC3N(C2)C(=O)CC32CC2)n2c(Cl)cnc(N)c12 (stereo not shown) [Compound 37, 4-[8-amino-5-chloro-3-(3′-oxohexahydro-5′H-spiro[cyclopropane-1,1′-indolizin]-6′-yl)imidazo[1,5-a]pyrazin-1-yl]-N-(4-cyanopyridin-2-yl)-3-ethoxy-5-fluorobenzamide] | 9.73 | 6.43 | 
3 | CCOc1cc(C(=O)Nc2cc(C#N)ccn2)cc(F)c1-c1nc(C2CCC3N(C2)C(=O)CC32CC2)n2ccnc(N)c12 (stereo not shown) [Compound 38, 4-[8-amino-3-(3′-oxohexahydro-5′H-spiro[cyclopropane-1,1′-indolizin]-6′-yl)imidazo[1,5-a]pyrazin-1-yl]-N-(4-cyanopyridin-2-yl)-3-ethoxy-5-fluorobenzamide] | 9.65 | 6.12 | 
4 | Nc1nccn2c([C@@H]3CC[C@H]4[C@@H](O)C5(CC5)C(=O)N4C3)nc(-c3ccc(C(=O)Nc4cc(C(F)(F)F)ccn4)cc3F)c12 [Compound 12, 4-(8-amino-3-((1′S,6′R,8a′S)-1′-hydroxy-3′-oxohexahydro-1′H-spiro[cyclopropane-1,2′-indolizin]-6′-yl)imidazo[1,5-a]pyrazin-1-yl)-3-fluoro-N-(4-(trifluoromethyl)pyridin-2-yl)benzamide] | 9.42 | 6.02 | 
5 | CCOc1cc(C(=O)Nc2cc(C(F)(F)F)ccn2)ccc1-c1nc(C2CCC3N(C2)C(=O)CNC32CC2)n2ccnc(N)c12 (stereo not shown) [Compound 42, 4-[8-amino-3-(4′-oxohexahydro-2′H,6′H-spiro[cyclopropane-1,1′-pyrido[1,2-a]pyrazin]-7′-yl)imidazo[1,5-a]pyrazin-1-yl]-3-ethoxy-N-[4-(trifluoromethyl)pyridin-2-yl]benzamide] | 9.64 |  | 5.65
6 | CCOc1cc(C(=O)Nc2cc(C(F)(F)F)ccn2)cc(F)c1-c1nc([C@@H]2CC[C@@H]3N(C2)C(=O)C2(CC2)C3(F)F)n2ccnc(N)c12 [Compound 28, 4-{8-amino-3-[(6′R,8a′S)-1′,1′-difluoro-3′-oxohexahydrospiro[cyclopropane-1,2′-indolizin]-6′-yl]imidazo[1,5-a]pyrazin-1-yl}-3-ethoxy-5-fluoro-N-[4-(trifluoromethyl)pyridin-2-yl]benzamide] | 8.81 | 5.71 | 
7 | CCOc1cc(C(=O)Nc2cc(C(F)(F)F)ccn2)ccc1-c1nc(C2CCC3N(C2)C(=O)CNC32CC2)n2ccnc(N)c12 (stereo not shown) [Compound 39, 4-[8-amino-3-(4′-oxohexahydro-2′H,6′H-spiro[cyclopropane-1,1′-pyrido[1,2-a]pyrazin]-7′-yl)imidazol[1,5-a]pyrazin-1-yl]-3-ethoxy-N-[4-(trifluoromethyl)pyridin-2-yl]benzamide] | 9.49 | 5.87 | 
8 | CCOc1cc(C(=O)Nc2cc(C3CC3)ccn2)cc(F)c1-c1nc([C@@H]2CC[C@@H]3N(C2)C(=O)CC32CC2)n2ccnc(N)c12 [Compound 21, 4-{8-amino-3-[(6′R,8a′S)-3′-oxohexahydro-5′H-spiro[cyclopropane-1,1′-indolizin]-6′-yl]imidazo[1,5-a]pyrazin-1-yl}-N-(4-cyclopropylpyridin-2-yl)-3-ethoxy-5-fluorobenzamide] | 9.80 | 5.97 | 
9 | CCOc1cc(C(=O)Nc2cc(C(F)(F)F)ccn2)ccc1-c1nc([C@@H]2CC[C@H]3CN4CCC[C@H]4C(=O)N3C2)n2ccnc(N)c12 [Compound 16, 4-{8-amino-3-[(5aS,8R,11aS)-11-oxodecahydro-1H-pyrido[1,2-a]pyrrolo[1,2-d]pyrazin-8-yl]imidazo[1,5-a]pyrazin-1-yl}-3-ethoxy-N-[4-(trifluoromethyl)pyridin-2-yl]benzamide] | 9.31 | 5.78 | 
10 | Nc1nccn2c([C@@H]3CC[C@H]4C(O)C5(CC5)C(=O)N4C3)nc(-c3ccc(C(=O)Nc4cc(C5CC5)ccn4)cc3)c12 (stereo partly drawn) [Compound 13, 4-(8-amino-3-((1′S,6′R,8a′S)-1′-hydroxy-3′-oxohexahydro-1′H-spiro[cyclopropane-1,2′-indolizin]-6′-yl)imidazo[1,5-a]pyrazin-1-yl)-N-(4-cyclopropanepyridin-2-yl)benzamide] | 8.91 | 6.21 | 
11 | Cc1ccnc(NC(=O)c2ccc(-c3nc([C@@H]4CC[C@H]5C(=O)C6(CC6)C(=O)N5C4)n4ccnc(N)c34)cc2)c1 [Compound 8, 4-{8-amino-3-[(6′R,8a′S)-1′,3′-dioxohexahydrospiro[cyclopropane-1,2′-indolizin]-6′-yl]imidazo[1,5-a]pyrazin-1-yl}-N-(4-methylpyridin-2-yl)benzamide] | 8.68 | 7.29 | 
12 | CCOc1cc(C(=O)Nc2cc(C(F)(F)F)n(C)n2)cc(F)c1-c1nc(C2CCC3N(C2)C(=O)CC32CC2)n2c(F)cnc(N)c12 (stereo not shown) [Compound 23, 4-[8-amino-5-fluoro-3-(3′-oxohexahydro-5′H-spiro[cyclopropane-1,1′-indolizin]-6′-yl)imidazo[1,5-a]pyrazin-1-yl]-3-ethoxy-5-fluoro-N-[1-methyl-5-(trifluoromethyl)-1H-pyrazol-3-yl]benzamide] | 8.23 |  | 5.68
13 | CCOc1cc(C(=O)Nc2cc(C(F)(F)F)ccn2)ccc1-c1nc([C@H]2CN3C(=O)[C@H]4CCCN4C[C@@H]3CO2)n2ccnc(N)c12 [Compound 35, 4-{8-amino-3-[(3R,6aR,11aR)-6-oxooctahydro-1H,6H-pyrrolo [1′,2′:4,5]pyrazino[2,1-c][1,4]oxazin-3-yl]imidazo[1,5-a]pyrazin-1-yl}-3-ethoxy-N-[4-(trifluoromethyl)pyridin-2-yl] benzamide] | 8.90 | 5.87 | 
14 | Nc1nccn2c([C@@H]3CC[C@H]4C(=O)C5(CC5)C(=O)N4C3)nc(-c3ccc(C(=O)Nc4cc(C(F)(F)F)ccn4)cc3)c12 [Compound 6, 4-{8-amino-3-[(6′R,8a′S)-1′,3′-dioxohexahydrospiro[cyclopropane-1,2′-indolizin]-6′-yl]imidazo[1,5-a]pyrazin-1-yl}-N-[4-(trifluoromethyl)pyridin-2-yl]benzamide] | 9.07 | 6.82 | 
